Data: patent US9056843B2, “Trifluoromethyl-oxadiazole derivatives and their use in the treatment of disease” (NOVARTIS AG, priority 2011, dated 2015)

Columns and labels:
Type in all cases: biochemical
[1] = target: Human recombinant full length HDAC6 (Homo sapiens (Human), UniProt Q9UBN7); test: Test 4: HDAC6 assay; settings: Test 4; substrate 5 μM acetyl-Gly-Ala-Lys(acetyl)-AMC
Outline: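 Baculovirus-expressed full-length recombinant human HDAC6 with 5 μM acetyl-Gly-Ala-Lys(acetyl)-AMC substrate, developed with trypsin 15 min at room temperature.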

[2] = target: Human recombinant full length HDAC1 (Homo sapiens (Human), UniProt Q13547); test: Test 3: HDAC1 assay; settings: substrate 5 μM acetyl-Gly-Ala-Lys(acetyl)-AMC
Outline: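 Baculovirus-expressed full-length human HDAC1 with 5 μM acetyl-Gly-Ala-Lys(acetyl)-AMC substrate, developed with trypsin 15 min at room temperature.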

Human recombinant HDAC4 = Human recombinant HDAC4 (Homo sapiens (Human), UniProt P56524); test: Test 2: HDAC4 assay (fluorogenic substrate, 5 μM acetyl-Gly-Ala-Lys(ε-trifluoroacetyl)-AMC); settings: Test 2 (values without asterisk)
Outline: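 After the reaction, bovine trypsin (300 nM solution) was added for 15 min at RT to develop the signal; fluorescence read at 360/450 nm. No-enzyme background subtracted; IC50 from 4-parameter logistic fit of dose-response curves.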

Chain of Human recombinant full length HDAC1 (Q13547 whole entry): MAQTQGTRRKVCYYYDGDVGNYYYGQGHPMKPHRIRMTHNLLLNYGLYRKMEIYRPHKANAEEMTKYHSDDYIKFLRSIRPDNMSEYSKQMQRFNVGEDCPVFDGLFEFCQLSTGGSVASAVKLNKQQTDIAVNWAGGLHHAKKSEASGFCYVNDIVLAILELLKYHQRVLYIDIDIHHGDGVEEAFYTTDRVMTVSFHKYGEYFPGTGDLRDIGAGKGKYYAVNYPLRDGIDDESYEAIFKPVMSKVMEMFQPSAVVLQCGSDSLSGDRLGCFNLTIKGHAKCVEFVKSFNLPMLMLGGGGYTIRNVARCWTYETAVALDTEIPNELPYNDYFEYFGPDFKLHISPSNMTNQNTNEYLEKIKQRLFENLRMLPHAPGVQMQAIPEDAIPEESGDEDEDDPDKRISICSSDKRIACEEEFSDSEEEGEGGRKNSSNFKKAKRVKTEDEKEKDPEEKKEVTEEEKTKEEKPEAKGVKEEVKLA
Chain of Human recombinant full length HDAC6 (Q9UBN7 whole entry): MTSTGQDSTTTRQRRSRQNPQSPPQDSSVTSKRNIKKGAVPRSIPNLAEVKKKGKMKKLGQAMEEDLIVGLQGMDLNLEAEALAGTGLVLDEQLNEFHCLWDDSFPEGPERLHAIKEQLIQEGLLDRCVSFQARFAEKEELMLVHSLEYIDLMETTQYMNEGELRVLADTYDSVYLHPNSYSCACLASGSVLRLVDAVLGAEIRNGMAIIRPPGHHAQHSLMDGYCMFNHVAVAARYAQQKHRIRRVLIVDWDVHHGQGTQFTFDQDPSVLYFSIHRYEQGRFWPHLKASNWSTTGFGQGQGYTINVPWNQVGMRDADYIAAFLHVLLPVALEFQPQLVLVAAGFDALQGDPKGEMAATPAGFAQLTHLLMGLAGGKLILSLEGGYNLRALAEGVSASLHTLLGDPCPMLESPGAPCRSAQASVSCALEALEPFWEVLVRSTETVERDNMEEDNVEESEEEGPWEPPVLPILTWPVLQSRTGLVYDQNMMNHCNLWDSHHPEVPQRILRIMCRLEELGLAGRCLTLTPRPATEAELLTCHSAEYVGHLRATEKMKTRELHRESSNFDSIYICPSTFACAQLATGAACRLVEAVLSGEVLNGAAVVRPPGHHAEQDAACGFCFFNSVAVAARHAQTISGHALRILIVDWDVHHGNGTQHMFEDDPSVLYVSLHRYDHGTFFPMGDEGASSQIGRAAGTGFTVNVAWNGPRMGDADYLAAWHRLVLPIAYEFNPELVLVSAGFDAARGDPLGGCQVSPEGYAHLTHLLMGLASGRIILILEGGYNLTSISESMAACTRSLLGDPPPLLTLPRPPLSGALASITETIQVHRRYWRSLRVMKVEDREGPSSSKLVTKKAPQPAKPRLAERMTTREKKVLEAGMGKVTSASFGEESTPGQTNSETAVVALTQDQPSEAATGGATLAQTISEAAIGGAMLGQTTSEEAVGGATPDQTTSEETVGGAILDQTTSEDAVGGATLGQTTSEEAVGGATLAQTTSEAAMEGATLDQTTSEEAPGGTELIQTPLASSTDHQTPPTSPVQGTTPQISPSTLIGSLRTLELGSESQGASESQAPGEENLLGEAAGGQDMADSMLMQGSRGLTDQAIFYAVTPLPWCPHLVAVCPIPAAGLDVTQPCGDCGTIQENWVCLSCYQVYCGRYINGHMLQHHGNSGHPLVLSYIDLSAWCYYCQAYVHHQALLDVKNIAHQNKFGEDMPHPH
Chain of Human recombinant HDAC4 (P56524 2-1084): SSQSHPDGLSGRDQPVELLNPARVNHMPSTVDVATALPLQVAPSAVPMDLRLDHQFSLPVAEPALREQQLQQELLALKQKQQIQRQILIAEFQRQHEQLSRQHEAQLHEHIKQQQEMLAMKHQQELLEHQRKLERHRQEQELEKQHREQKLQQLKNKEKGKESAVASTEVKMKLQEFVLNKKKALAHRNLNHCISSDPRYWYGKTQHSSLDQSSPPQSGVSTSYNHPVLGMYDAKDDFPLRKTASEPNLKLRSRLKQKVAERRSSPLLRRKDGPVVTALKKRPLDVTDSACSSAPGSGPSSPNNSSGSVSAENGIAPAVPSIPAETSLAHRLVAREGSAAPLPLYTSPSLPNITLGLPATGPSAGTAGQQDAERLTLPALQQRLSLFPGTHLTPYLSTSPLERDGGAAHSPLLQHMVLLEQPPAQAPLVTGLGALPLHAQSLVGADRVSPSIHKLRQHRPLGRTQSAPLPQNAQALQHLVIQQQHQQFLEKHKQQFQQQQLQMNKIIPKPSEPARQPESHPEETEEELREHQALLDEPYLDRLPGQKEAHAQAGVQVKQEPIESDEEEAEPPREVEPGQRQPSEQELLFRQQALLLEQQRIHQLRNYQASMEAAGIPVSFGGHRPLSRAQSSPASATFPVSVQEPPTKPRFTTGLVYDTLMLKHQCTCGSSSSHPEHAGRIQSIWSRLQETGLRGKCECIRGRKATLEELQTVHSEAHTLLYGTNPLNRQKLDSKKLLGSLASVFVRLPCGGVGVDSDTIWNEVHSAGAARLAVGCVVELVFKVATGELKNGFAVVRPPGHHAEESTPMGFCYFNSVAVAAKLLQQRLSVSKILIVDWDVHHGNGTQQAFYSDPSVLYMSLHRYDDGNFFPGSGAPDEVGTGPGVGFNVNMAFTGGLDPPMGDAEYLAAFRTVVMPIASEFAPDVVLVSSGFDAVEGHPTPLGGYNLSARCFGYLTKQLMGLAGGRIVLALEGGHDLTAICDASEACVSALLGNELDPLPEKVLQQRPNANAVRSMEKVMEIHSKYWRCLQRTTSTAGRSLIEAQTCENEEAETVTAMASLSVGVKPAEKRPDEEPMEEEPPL

Row | SMILES | IC50 [1] [µM] | IC50 [2] [µM] | IC50 (Human recombinant HDAC4) [µM]
1 | O=C(NCCO)c1ccc(-c2noc(C(F)(F)F)n2)cc1 [Example 13, N-(2-hydroxyethyl)-4-(5-(trifluoromethyl)-1,2,4-oxadiazol-3-yl)benzamide] | 8.9 | > 10 | 0.66
2 | CNC(=O)CNC(=O)c1ccc(-c2noc(C(F)(F)F)n2)cc1 [Example 63, N-(2-(methylamino)-2-oxoethyl)-4-(5-(trifluoromethyl)-1,2,4-oxadiazol-3-yl)benzamide] | > 10 | > 10 | 0.78
3 | O=C(NC1CCNC1)c1ccc(-c2noc(C(F)(F)F)n2)cc1 (stereo not drawn) [Example 80, N-(pyrrolidin-3-yl)-4-(5-(trifluoromethyl)-1,2,4-oxadiazol-3-yl)benzamide] | > 10 | > 10 | 0.47
4 | C[C@H](CN1CCCCC1)NC(=O)c1ccc(-c2noc(C(F)(F)F)n2)cc1 [Example 131, (R)—N-(1-(piperidin-1-yl)propan-2-yl)-4-(5-(trifluoromethyl)-1,2,4-oxadiazol-3-yl)benzamide] | 7.5 | 6.55 | 0.01
5 | CN(C)C(=O)Cc1ccc(-c2noc(C(F)(F)F)n2)cc1 [Example 4, N,N-Dimethyl-2-[4-(5-trifluoromethyl-[1,2,4]oxadiazol-3-yl)-phenyl]-acetamide] | 7.9 | > 10 | 0.62
6 | CN(C)CCN(C)C(=O)c1ccc(-c2noc(C(F)(F)F)n2)cc1 [Example 37, N-(2-(dimethylamino)ethyl)-N-methyl-4-(5-(trifluoromethyl)-1,2,4-oxadiazol-3-yl)benzamide] | > 10 | > 10 | 0.34
7 | CC(C)[C@H](CN(C)C)NC(=O)c1ccc(-c2noc(C(F)(F)F)n2)cc1 [Example 84, (R)—N-(1-(dimethylamino)-3-methylbutan-2-yl)-4-(5-(trifluoromethyl)-1,2,4-oxadiazol-3-yl)benzamide] | > 10 | > 10 | 0.49
8 | CON(C)C(=O)Cc1ccc(-c2noc(C(F)(F)F)n2)cc1 [Example 11, N-methoxy-N-methyl-2-(4-(5-(trifluoromethyl)-1,2,4-oxadiazol-3-yl)phenvyl)acetamide] | 8.9 | > 10 | 1.1
9 | CC(C)N(C)C(=O)c1ccc(-c2noc(C(F)(F)F)n2)cc1 [Example 24, N-isopropyl-N-methyl-4-(5-(trifluoromethyl)-1,2,4-oxadiazol-3-yl)benzamide] | > 10 | > 10 | 0.77
10 | CN(C)C(=O)CNC(=O)c1ccc(-c2noc(C(F)(F)F)n2)cc1 [Example 52, N-(2-(dimethylamino)-2-oxoethyl)-4-(5-(trifluoromethyl)-1,2,4-oxadiazol-3-yl)benzamide] | > 10 | > 10 | 3.2
11 | CCC(CC)NC(=O)c1ccc(-c2noc(C(F)(F)F)n2)cc1 [Example 30, N-(pentan-3-yl)-4-(5-(trifluoromethyl)-1,2,4-oxadiazol-3-yl)benzamide] | > 10 | > 10 | 6.4
12 | CN(C)S(=O)(=O)c1ccc(-c2noc(C(F)(F)F)n2)cc1 [Example 114, N,N-dimethyl-4-(5-(trifluoromethyl)-1,2,4-oxadiazol-3-yl)benzenesulfonamide] | 9.1 | > 10 | 0.63
13 | COCCNC(=O)Cc1ccc(-c2noc(C(F)(F)F)n2)cc1 [Example 7, N-(2-methoxyethyl)-2-(4-(5-(trifluoromethyl)-1,2,4-oxadiazol-3-yl)phenyl)acetamide] | 6.9 | > 10 | 0.96
14 | C[C@H](CO)NC(=O)c1ccc(-c2noc(C(F)(F)F)n2)cc1 [Example 28, (R)—N-(1-hydroxyypropan-2-yl)-4-(5-(trifluoromethyl)-1,2,4-oxadiazol-3-yl)benzamide] | 7.7 | > 10 | 0.35
15 | C[C@H](CN1CCCC1)NC(=O)c1ccc(-c2noc(C(F)(F)F)n2)cc1 [Example 130, (R)—N-(1-(pyrrolidin-1-yl)propan-2-yl)-4-(5-(trifluoromethyl)-1,2,4-oxadiazol-3-yl)benzamide] | 9.1 | > 10 | 0.011
16 | CC(C)CNC(=O)c1ccc(-c2noc(C(F)(F)F)n2)cc1 [Example 27, N-isobutyl-4-(5-(trifluoromethyl)-1,2,4-oxadiazol-3-yl)benzamide] | > 10 | > 10 | 1.2

Next, values leading:

Row | IC50 [1] [µM] | IC50 [2] [µM] | IC50 (Human recombinant HDAC4) [µM] | SMILES
17 | 5.4 | > 10 | 0.0072 | CC(C)N(C)C[C@@H](C)NC(=O)c1ccc(-c2noc(C(F)(F)F)n2)cc1F [Example 142, (R)-2-fluoro-N-(1-(isopropyl(methyl)amino)propan-2-yl)-4-(5-(trifluoromethyl)-1,2,4-oxadiazol-3-yl)benzamide]
18 | 2.1 | > 10 | 0.054 | O=C(Nc1ccncc1)c1ccc(-c2noc(C(F)(F)F)n2)cc1 [Example 47, N-(ppyridin-4-yl)-4-(5-(trifluoromethyl)-1,2,4-oxadiazol-3-yl)benzamide]
19 | 2.4 | 9 | 0.085 | CC(CNC(=O)c1ccc(-c2noc(C(F)(F)F)n2)cc1F)N(C)C (stereo not drawn) [Example 122, N-(2-(dimethylamino)propyl)-2-fluoro-4-(5-(trifluoromethyl)-1,2,4-oxadiazol-3-yl)benzamide]
20 | 3.2 | > 10 | 0.61 | O=C(NCC1CC1)c1ccc(-c2noc(C(F)(F)F)n2)cc1 [Example 26, N-(cyclopropylmethyl)-4-(5-(trifluoromethyl)-1,2,4-oxadiazol-3-yl)benzamide]
21 | 2.2 | > 10 | 2.5 | CC(C)(C)OC(=O)NC1CCCCC1NC(=O)c1ccc(-c2noc(C(F)(F)F)n2)cc1 (stereo not drawn) [Example 60, tert-butyl (2-(4-(5-(trifluoromethyl)-1,2,4-oxadiazol-3-yl)benzamido)cyclohexyl)carbamate]
22 | 6.5 | > 10 | 0.52 | O=C(NC1CCOCC1)c1ccc(-c2noc(C(F)(F)F)n2)cc1 [Example 57, N-(tetrahydro-2H-pyran-4-yl)-4-(5-(trifluoromethyl)-1,2,4-oxadiazol-3-yl)benzamide]
23 | 6.8 | > 10 | 1.4 | COCCNC(=O)c1ccc(-c2noc(C(F)(F)F)n2)cc1 [Example 16, N-(2-methoxyethyl)-4-(5-(trifluoromethyl)-1,2,4-oxadiazol-3-yl)benzamide]
24 | 3.1 | > 10 | 0.97 | CC(C)NC(=O)Cc1ccc(-c2noc(C(F)(F)F)n2)cc1 [Example 5, N-Isopropyl-2-[4-(5-trifluoromethyl-[1,2,4]oxadiazol-3-yl)-phenyl]-acetamide]
25 | 0.44 | > 10 | 0.097 | O=S(=O)(Nc1ccc(F)cc1)c1ccc(-c2noc(C(F)(F)F)n2)cc1 [Example 109, N-(4-fluorophenyl)-4-(5-(trifluoromethyl)-1,2,4-oxadiazol-3-yl)benzenesulfonamide]
26 | 5.1 | > 10 | 0.5 | CC(CO)NC(=O)c1ccc(-c2noc(C(F)(F)F)n2)cc1F (stereo not drawn) [Example 91, 2-fluoro-N-(1-hydroxyypropan-2-yl)-4-(5-(trifluoromethyl)-1,2,4-oxadiazol-3-yl)benzamide]
27 | 2.3 | 2.9 | 0.00085 | C[C@H](CN(C)Cc1ccccc1)NC(=O)c1ccc(-c2noc(C(F)(F)F)n2)cc1 [Example 156, (R)—N-(1-(benzyl(methyl)amino)propan-2-yl)-4-(5-(trifluoromethyl)-1,2,4-oxadiazol-3-yl)benzamide]
28 | 3.1 | 1.2 | 0.0011 | CCCCN(C)C[C@@H](C)NC(=O)c1ccc(-c2noc(C(F)(F)F)n2)cc1 [Example 150, (R)—N-(1-(butyl(methyl)amino)propan-2-yl)-4-(5-(trifluoromethyl)-1,2,4-oxadiazol-3-yl)benzamide]
29 | 2.6 | 2.7 | 0.0018 | CCCCN(C)C[C@@H](C)NC(=O)c1ccc(-c2noc(C(F)(F)F)n2)cc1F [Example 151, (R)—N-(1-(butyl(methyl)amino)propan-2-yl)-2-fluoro-4-(5-(trifluoromethyl)-1,2,4-oxadiazol-3-yl)benzamide]
30 | 6.2 | > 10 | 0.3 | CN(C)CCCNS(=O)(=O)c1ccc(-c2noc(C(F)(F)F)n2)cc1 [Example 113, N-(3-(dimethylamino)propyl)-4-(5-(trifluoromethyl)-1,2,4-oxadiazol-3-yl)benzenesulfonamide]
31 | 3.7 | 2.4 | 0.00075 | CCCN(CC)C[C@@H](C)NC(=O)c1ccc(-c2noc(C(F)(F)F)n2)cc1 [Example 145, (R)—N-(1-(ethyl(propyl)amino)propan-2-yl)-4-(5-(trifluoromethyl)-1,2,4-oxadiazol-3-yl)benzamide]
32 | 4.1 | > 10 | 0.43 | CCNC(=O)c1ccc(-c2noc(C(F)(F)F)n2)cc1 [Example 12, N-ethyl-4-(5-(trifluoromethyl)-1,2,4-oxadiazol-3-yl)benzamide]
33 | 6.8 | > 10 | 0.55 | CCC(CO)NC(=O)c1ccc(-c2noc(C(F)(F)F)n2)cc1 (stereo not drawn) [Example 56, N-(1-tetrahydroxy-2 H-butan-2-yl)-4-(5-(trifluoromethyl)-1,2,4-oxadiazol-3-yl)benzamide]
